How the values were obtained:
Type in all cases: cell-based
[1] = test system: Candida albicans (DSM 1386/ATCC 10231); test: microbe, parasite or virus in culture; details: C. albicans
Source text: (§1) The following bacteria and fungi strains and methods were used:
Candida albicans: MIC determined in accordance with the method described in EUCAST DEFINITIVE DOCUMENT EDef 7.2 “Method for the determination of broth dilution minimum inhibitory concentrations of antifungal agents for yeasts” available under www.eucast.org.

[2] = test system: Aspergillus brasiliensis (DSM 1988/ATCC 16404); test: microbe, parasite or virus in culture
Source text: as §1
Aspergillus brasiliensis (2d) and (9d): MIC determined in accordance with a method of the European Committee on Antimicrobial Susceptibility Testing: EUCAST E.DEF 9.1, July 2008, “Method for the determination of broth dilution minimum inhibitory concentrations of antifungal agents for conidia forming moulds” available under www.eucast.

[3] = test system: Pseudomonas aeruginosa (DSM 1128/ATCC 9027); test: microbe, parasite or virus in culture; details: P. aeruginosa
Source text: as §1
(§2) Pseudomonas aeruginosa and Escherichia coli: MIC determined in accordance with DIN EN ISO 20776-1: 2006.

[4] = test system: Escherichia coli (DSM 1576/ATCC 8739); test: microbe, parasite or virus in culture; details: E. coli
Source text: as §1, §2

[5] = test system: Human corneal epithelial cells (HCE-T-cell line); test: MTT toxicity test; details: compound 0.01%, 10 minutes treatment, in reference to KRB (100% viability) and Triton X (0% viability)
Description: The toxicity of the compounds of the invention was determined in accordance with a conventional MTT test. Human corneal epithelial cells (HCE-T-cell line) were cultivated in 5% Sasaki cell culture medium consisting of 250 ml DMEM (Dulbecco's Modified Eagle's Medium), 250 ml Ham's F12 medium, 27.17 ml fetale calf serum, 543.4 μl insulin 5 mg/ml, 1.086 ml EGF stock solution 5 μg/ml, 2.717 ml DMSO and 5.43 ml antibiotic/antimycotic solution. The cells were seeded into a 96 wells cell culture plate (18 000 cells/well) and grown in an incubator for about 24 h (37° C., 5% CO2). The medium was removed and the test compounds dissolved in KRB (Krebs Ringer buffer) were applied. 100 μl KRB were used as positive control whereas a 0.5% Triton X solution was used as negative control.
After incubation for 10 min. under light protection the test compounds were removed and the plates were rinsed once with 100 μl phosphate buffered saline (PBS without Mg and Ca) per well. After removal of PBS 100 μl MTT reagent (0.05%) were added into each well followed by incubation for 3h at 37° C. under light protection. Thereafter, the reagent was removed and replaced by 100 μl lysis solution. The dark blue dye was dissolved from the cells by shaking. After 30 min. the plate was evaluated by UV spectroscopy at 570 nm.

SMILES	MIC [1] [µg/mL]	MIC ([2]; 48 h, A. bras. (2d)) [µg/mL]	MIC ([2]; 216 h, A. bras. (9d)) [µg/mL]	MIC [3] [µg/mL]	MIC [4] [µg/mL]	Viability [5] [%]
c1cc(-c2cc[n+](CCCC[n+]3ccc(-c4ccncc4)cc3)cc2)ccn1 [Comp. ex. 3, reference compound]	200	200	200 to 400	> 400	200	
CC[N+](CC)(CC)C/C=C/C[n+]1ccc(CCCc2cc[n+](C/C=C/C[n+]3ccc(CCCc4cc[n+](C/C=C/C[N+](CC)(CC)CC)cc4)cc3)cc2)cc1 [Ex. 3]	< 3.1	12.5	12.5 to 25	25	50	90.3 ± 7.0
BrCCCC[n+]1ccc(-c2ccncc2)cc1 [Ex. 5]	1.56	3.1	3.1 to 50	12.5	6.3	83.8 ± 12.6
CCCCCCCCCCCC[N+](C)(C)CCCC[n+]1ccc(-c2ccncc2)cc1 [Ex. 6.2]	< 3.12	6.3	6.3	12.5	6.3	74.9 ± 12.0
